Reference: patent US7022481B2, “Methods of using glucan synthase pathway reporter genes to screen for antifungal compounds” (Rosetta Inpharmatics LLC, priority 2002, dated 2006)
Converted amounts (≈) assume the structure as drawn. Where two headings read alike, the source gives them in different places.

Tests used:
Type in all cases: cell-based, S. cerevisiae
ABY12 strain = assay: growth inhibition (IC values) in the ABY12 strain
Source text: 3. The drug-like agents selected for the assay were the GS inhibitors Enfumafungin, Ascosteroside, and Dihydropapulacandin B; along with the Elongation Factor 2 (EF2) inhibitor Sordarin, to be used as a negative control. These four drugs were all added to the second column of each 96-well assay plate and serially diluted (1 to 2) into Casamino Acids media plus 2% DMSO in columns 3–12, so that column 2 of each plate will contain the highest concentration of each drug and column 12 will contain the lowest. The first column of each plate was used as a “no drug” control, containing only Casamino Acids media plus 2% DMSO. The concentrations for each drug that were added to the wells in column 2 are shown in Table VI (Maximum Concentration Tested) along with the rows of each plate they were added to (Table VI, Rows).
5. After the 24 hour incubation the 96-well assay plates were imaged in a Molecular Dynamics Fluorimager SI to measure the fluorescence from the GFP reporters. […] Additionally, none of the compounds tested induced increased fluorescence from the reporter for inhibition of sterol biosynthesis, HES1 (FIG. 20). […] Of note here is the fact that the highest concentrations tested were all substantially greater than the measured IC50's for these compounds in the ABY12 strain (Table VI). Therefore these strains are capable of reporting on inhibition of GS even at drug concentrations that inhibit cell growth. This is an important characteristic of this assay as the preferred method of high-throughput screening would be to perform the screens at one high concentration for every compound assayed. It has been previously shown that the HES1 reporter strain is capable of performing under such assay conditions in a 384-well formatted high-throughput screen of a combinatorial library (WO 00/58521, PCT published application).

[1] = system: YOL113W (SKM1), YNR066C, YLR121C (YPS3), YKL161C, and YAR050W (FLO1) GFP reporters; assay: liquid high-throughput like 96-well GFP reporter assay, glucan synthase pathway reporters; settings: serial 1 to 2 dilutions, ~24 hours at 30 degrees Celsius, five GS reporters
Procedure: The five reporters selected were: YOL113W (SKM1), YNR066C, YLR121C (YPS3), YKL161C, and YAR050W (FLO1). Another reporter, YOR237W (HES1), was selected as a negative control.
1. Reporters transformed into wild-type S. Cerevisiae strain ABY12 were grown on solid Casamino Acids media plates.
2. The cultures from the solid media plates were used to inoculate 50 ml liquid cultures in Casamino Acids media. These liquid cultures were grown overnight at 30 degrees Celsius. The cultures were all grown to a final OD600˜=8 (Table V).
These cultures were then diluted in Casamino Acids media to and OD600=2.
3. The drug-like agents selected for the assay were the GS inhibitors Enfumafungin, Ascosteroside, and Dihydropapulacandin B; along with the Elongation Factor 2 (EF2) inhibitor Sordarin, to be used as a negative control. […]
5. After the 24 hour incubation the 96-well assay plates were imaged in a Molecular Dynamics Fluorimager SI to measure the fluorescence from the GFP reporters. […] Additionally, none of the compounds tested induced increased fluorescence from the reporter for inhibition of sterol biosynthesis, HES1 (FIG. 20). […] Of note here is the fact that the highest concentrations tested were all substantially greater than the measured IC50's for these compounds in the ABY12 strain (Table VI). […]

[2] = system: gene reporters in the GRM (promoter-GFP fusions); assay: Genome Reporter Matrix (GRM) reporter gene expression profiling
Source text: Genome Reporter Matrix™ (GRM) technology was used to generate the gene expression profiles that the glucan synthase inhibition treatments induced in the yeast S. cerevisiae. The GRM was used to generate comprehensive gene expression profiles in the yeast S. cerevisiae. The GRM used in the present invention was a matrix of units comprising living S. cerevisiae cells, the cells in each unit containing one S. cerevisiae reporter fusions (GRM construct) representative of essentially every known gene and hypothetical open reading frame (ORF) of S. cerevisiae. The GRM constructs used in the present invention comprised a promoter, 5′ upstream untranslated region and usually the first four amino acids from one of each hypothetical ORF fused to a gene encoding the green fluorescent protein (GFP).
Solutions of test compounds were added directly to the solid agar growth media plates prior to addition of S. cerevisiae strains. The individual strains comprising the GRM were maintained as independent colonies (and cultures) in a 96-well format, in medium selecting for the URA2-containing reporter plasmid. Prior to each experiment, fresh dilutions of the reporter-containing strains were inoculated and grown overnight at 30° C. A Hamilton MicroLab 4200, a multichannel gantry robot equipped with a custom pin tool device capable of dispensing 50 nanoliter volumes in a highly reproducible manner, was used to array the matrix of S. cerevisiae strains in a uniform manner onto solid agar growth media at a density of 1536 reporter strains per 110 cm^2 plate. Fifty nanoliters of S. cerevisiae liquid cultures arrayed onto solid medium by the Hamilton Microlab 4200 results in colony-to-colony signal reproducibility of less than 5% variation. Once arrayed, each plate was grown at 30° C. for 18 hours or at 25° C. for 24 hours.
The level of fluorescence expressed from each reporter gene fusion was determined using a Molecular Dynamics Fluorimager SI. Custom image analysis software was used to quantitate the fluorescence of each colony in the images.

wild-type S288C strain = assay: microbe, parasite or virus in culture
Procedure: First, comprehensive gene expression profiles for S. cerevisiae grown in the presence of known inhibitors of glucan synthase were constructed. Enfumafungin and Ascosteroside were two known glucan synthase inhibitors used in the present invention. Prior to exposing the GRM to these two glucan synthase inhibitors, growth inhibition studies were performed on wild-type S288C strain in order to determine the appropriate concentrations for GRM profiling.

YOL113W (SKM1) reporter = assay: solid plate halo assay, reporter fluorescence; settings: 20 ul of 200 μg/ml and 1 mg/ml on paper disc, 23 hour incubation
Procedure: (§1) This assay is meant to mimic assays where natural product producing strains would be either plated onto a lawn of our ABY12 reporter carrying strains, or an agar overlay containing the ABY12 reporter strain would be placed over a plate containing natural product producing strains, the purpose being identifying strains that are producing molecules that inhibit GS.
(§2) 1. The YOL113W (SKM1) reporter transformed into wild-type S. Cerevisiae strain ABY12 was grown on a solid Casamino Acids media plate.
(§3) 2. The culture from the solid media plate was used to inoculate a 50 ml liquid culture in Casamino Acids media. This liquid culture was grown overnight at 30 degrees Celsius. The culture was grown to a final OD600=10.5. This culture was then diluted in Casamino Acids media to an OD600=1, or 1×10^7 cells per milliliter. Five-hundred microliters of cell culture (5×10^6 cells) was then spread evenly over the surface of each of two 100 mm solid agar-Casamino-acids-media plates to form a lawn of the YOL113W (SKM1) reporter strain on each plate.
(§4) 3. Two 6 mm diameter blank paper discs (BECTON DICKINSON® #231039) were placed on top of the agar surface of each plate evenly spaced apart. […]
(§5) 4. After a 23 hour incubation the assay plates were imaged in a Molecular Dynamics Fluorimager SI to measure the fluorescence from the GFP reporters. […]

[3] = system: lawn of the YOL113W (SKM1) reporter strain (ABY12); assay: solid plate halo assay, growth of lawn; settings: 20 ul of 200 μg/ml (low) and 20 ul of 1 mg/ml (high) on paper disc, 23 hour incubation
Procedure: as §1, §2, §3, §4, §5

[4] = Saccharomyces cerevisiae, read-out: IC50
[5] = growth inhibition, wild-type S288C strain

In the case of `CO[C@H]1[C@@H](O)[C@H](O)[C@H](OC[C@@]23C[C@@H]4[C@H](C)CC[C@H]4[C@@]4(C=O)CC2C=C(C(C)C)[C@@]34C(=O)O)O[C@@H]1C` [Sordarin], the IC25 (ABY12 strain) is reported as 1.1 µg/mL (≈ 2.23 µM), the IC75 (ABY12 strain) is reported as 2.5 µg/mL (≈ 5.08 µM) and the IC50 (ABY12 strain; [4]) is reported as 1.5 µg/mL (≈ 3.05 µM). The “fluorescence from the GFP reporters versus no drug controls” value [1] was “None of the reporters, however, showed any increase in fluorescence”.

In the case of `C=C(CC[C@H](C)[C@H]1C[C@@H](O)[C@@]2(C(=O)O)C3=C(CC[C@]12C)[C@@]1(C)CC[C@H](O[C@H]2O[C@H](CO)[C@@H](OC)[C@H](O)[C@H]2O)C(=C)[C@@H]1CC3)C(C)C` [Ascosteroside], the IC25 (ABY12 strain) is reported as 6.3 µg/mL (≈ 9.74 µM), the IC50 (ABY12 strain) is reported as 19 µg/mL (≈ 29.4 µM) and the “expression response of reporter YKL161C” value ([2]; 5 μg/ml in 1% DMSO, FIG. 9) is reported as “highly up-regulated”. For the same compound, the “number of gene reporters significantly up- or down-regulated” value ([2]; lowest concentration (5.0 μg/ml), p<=0.01, of roughly 6,000 gene reporters in the GRM) was 318, the IC25 (wild-type S288C strain; [5]) was 6.3 µg/mL (≈ 9.74 µM) and the IC50 (wild-type S288C strain; [5]) was 19 µg/mL (≈ 29.4 µM). The “effectiveness in growth inhibition assays” value (wild-type S288C strain; wild-type S288C strain) was “effective”.

Dihydropapulacandin B gave an IC25 (ABY12 strain) of 3.7 µg/mL, an IC50 (ABY12 strain) of 4.4 µg/mL and an IC75 (ABY12 strain) of 5.3 µg/mL.

For `CC(=O)O[C@@H]1C[C@]23C4=CC[C@@]5(C)[C@H](C(=O)O)[C@@](C)([C@H](C)C(C)C)CC[C@]5(C)[C@H]4CC[C@H]2[C@@](C)(COC3O)[C@H]1O[C@@H]1O[C@H](CO)[C@@H](O)[C@H](O)[C@H]1O` (stereo partly shown) [Enfumafungin], the “induction of the YOL113W (SKM1) reporter (fluorescence at edge of halo)” value (YOL113W (SKM1) reporter) was “significantly induced”, the “induction of the YOL113W (SKM1) reporter (fluorescence at edge of halo)” value (YOL113W (SKM1) reporter; listed as enfumafungin) was “upregulating SKM1 reporter” and the “growth of the lawn around paper disc (halo)” value [3] was “inhibited the growth of the lawn”. The IC25 (ABY12 strain) was 0.54 µg/mL (≈ 0.762 µM), the IC75 (ABY12 strain) was 0.9 µg/mL (≈ 1.27 µM) and the IC50 (ABY12 strain; [4]) was 0.69 µg/mL (≈ 0.973 µM). The “growth inhibition of the GRM” value ([2]; 0.60 μg/ml and 0.75 μg/ml) was “too much growth inhibition”, the IC50 (wild-type S288C strain; Saccharomyces cerevisiae) was 0.69 µg/mL (≈ 0.973 µM) and the IC25 (wild-type S288C strain; [5]) was 0.54 µg/mL (≈ 0.762 µM). The IC75 (wild-type S288C strain; [5]) was 0.9 µg/mL (≈ 1.27 µM) and the “effectiveness in growth inhibition assays” value (wild-type S288C strain; wild-type S288C strain) was “effective”.
